{"source": "patent US8198320B2", "about": "“Hypoglycemic activity of osthole” (Taipei Medical University, priority 2008, dated 2012)", "key": {"db/db diabetic mice [1]": {"system": "db/db diabetic mice", "test": "Effect of intraperitoneal administration of osthole on blood glucose level of db/db diabetic mice", "format": "in vivo", "details": "male db/db mice, 50 mg/kg intraperitoneal once daily, five days a week for two weeks, fasted about 16 hours; before treatment about 360 mg/dL; DMSO control 550 mg/dL", "procedure": "Six male db/db diabetic mice (6 to 11 week-old, purchased from National Laboratory Animal Center (Taipei, Taiwan)) were fasted for over 8 hours and venous blood was collected for the measurement of blood glucose level. The mice were divided into two groups (control group and experimental group) on the basis of their blood glucose level and body weight. The mice in the control group were given the solvent DMSO by means of intraperitoneal administration. The mice in the experimental group were given osthole (50 mg/kg body weight) (purchased from Hangzhou Gosun Biotechnologies Co., Zhejiang, China) by means of intraperitoneal administration. The solvent and osthole were administered once daily, five days a week for two weeks. The mice were then fasted for about 16 hours before being sacrificed and blood samples were collected for the measurement of blood glucose levels. […] After two weeks of treatment, the blood glucose level of the mice in the control group was elevated to 550 mg/dL, whereas the blood glucose level of the mice in the experimental group was maintained at about 360 mg/dL."}, "db/db diabetic mice [2]": {"system": "db/db diabetic mice", "test": "Effect of oral administration of osthole on blood glucose level of db/db diabetic mice", "format": "in vivo", "details": "male db/db mice, 50 mg/kg by gastric tube once daily, five days a week for three weeks, fasted about 16 hours; before treatment about 200 mg/dL; PBS control 400 mg/dL", "procedure": "Six male db/db diabetic mice (5 to 7 week-old, purchased from National Laboratory Animal Center (Taipei, Taiwan)) were fasted for over 8 hours and venous blood was collected for the measurement of blood glucose level. The mice were divided into two groups (control group and experimental group) on the basis of their blood glucose level and body weight. The mice in the control group were fed with PBS by gastric tube. The mice in the experimental group were fed with osthole (50 mg/kg body weight) by gastric tube. The PBS and osthole were administered once daily, five days a week for three weeks. The mice were then fasted for about 16 hours before being sacrificed and blood samples were collected for the measurement of blood glucose level. […] After three weeks of treatment, the blood glucose level of the mice in the control group was elevated to 400 mg/dL; whereas, the blood glucose level of the mice in the experimental group was maintained at about 210 mg/dL."}}}
{"smiles": "COc1ccc2ccc(=O)oc2c1CC=C(C)C", "note": "[osthole, 7-methoxy-8-(3-methyl-2-butenyl)-2H-1-benzopyran-2-one]", "values": [{"measurement": "blood glucose level after two weeks of treatment", "setting": "db/db diabetic mice [1]", "result": "about 360 mg/dL"}, {"measurement": "blood glucose level after three weeks of treatment", "setting": "db/db diabetic mice [2]", "result": "about 210 mg/dL"}]}
